Measured values taken from US12612409B2, “Pyrrolopyrimidines as CFTR potentiators” (Cystic Fibrosis Foundation, priority 2016, dated 2026).

Legend:
[1] = target: T1, CFTR in G551D/F508del primary CF hBE cells (Homo sapiens, UniProt P13569, G551D); test: Ussing chamber electrophysiology assay of CFTR potentiation in G551D/F508del CF bronchial epithelial cells (35° C.); type: cell-based; settings: G551 D/F508del Ussing chamber assay at 35 degrees Celsius
T1 construct: Primary cystic fibrosis human bronchial epithelial (CF hBE) cells were expanded and cultured; endogenous in cells; host or cells: primary CF human bronchial epithelial cells, genotype G551D/F508del
Description: • SHELXTL, Version 5.1, Bruker AXS, 1997. • PLATON, A. L. Spek, J. Appl. Cryst. 2003, 36, 7-13. • MERCURY, C. F. Macrae, P. R. Edington, P. McCabe, E. Pidcock, G. P. Shields, R. Taylor, M. Towler and J. van de Streek, J. Appl. Cryst. 39, 453-457, 2006. • OLEX2, Dolomanov, O. V.; Bourhis, L. J.; Gildea, R. J.; Howard, J. A. K.; Puschmann, H., (2009). J. Appl. Cryst., 42, 339-341. • R. W. W. Hooft et al. J. Appl. Cryst. (2008). 41. 96-103. • H. D. Flack, Acta Cryst. 1983, A39, 867-881. Using Chamber Electrophysiology Assay of CFTR Potentiation in CF Bronchial Epithelial Cells
Primary cystic fibrosis human bronchial epithelial (CF hBE) cells were expanded and cultured according to published methods (Neuberger et al., Ch. 4 of Cystic Fibrosis, Methods in Molecular Biology vol. 741, pp. 39-54 (2011)). Well-differentiated cells (>30 days at air/liquid interface) on Snapwell filters (Corning Costar, cat. no. 3801) were mounted in Ussing chambers (Physiologic Instruments, Inc., San Diego, CA). […] HEPES buffered physiological saline (composition (in mM): 137 NaCl, 4 KCl, 1 MgCl2, 1.8 CaCl2), 10 HEPES Na) was used in both apical and basolateral chambers. Chambers were bubbled with air to promote mixing and the voltage was clamped to zero. Amiloride (30 uM), forskolin (10 uM), test compound (4 increasing concentrations), and CFTRinh-172 (20 uM) were added sequentially with 20-25 minutes between additions. Short-circuit currents were acquired and analyzed using LabScribe2. Test compound responses were scaled relative to responses for DMSO (0%) and the maximal response of a positive control potentiator (100%).

[2] = target: T2, CFTR in F508del/F508del primary CF hBE cells (Homo sapiens, UniProt P13569, DEL508-508); test: Ussing chamber electrophysiology assay of CFTR potentiation in F508del/F508del CF bronchial epithelial cells (27° C.); type: cell-based
T2 construct: Primary cystic fibrosis human bronchial epithelial (CF hBE) cells were expanded and cultured; endogenous in cells; host or cells: primary CF human bronchial epithelial cells, genotype F508del/F508del
How it was run: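 Well-differentiated primary CF hBE cells (>30 days air/liquid interface) in Ussing chambers, HEPES saline both sides, voltage clamped to zero. Amiloride 30 uM, forskolin 10 uM, four rising compound concentrations, then CFTRinh-172 20 uM added at 20-25 min intervals. Short-circuit current scaled to DMSO (0%) and a positive control potentiator maximum (100%).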

[3] = target: T3, recombinant F508del V470 CFTR in Fischer rat thyroid (FRT) cells (Homo sapiens, UniProt P13569, DEL508-508); test: FRT ion flux assay of F508del CFTR potentiation; type: cell-based; settings: FRT cells expressing F508del V470 CFTR, forskolin 20 uM, 27° C. pre-incubation
T3 construct: expressed in transfected cells
How it was run: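 FRT cells co-expressing F508del V470 CFTR and halide-sensitive YFP, temperature-corrected at 27° C for 16-24 h, then treated 30 min with compound plus 20 uM forskolin. Iodide addition quenches YFP, read after ~21 s; ratio scaled to DMSO (0%) and positive control potentiator (100%).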

G551 D patients = settings: cited from earlier work
[4] = system: F508del homozygote patients; settings: cited from earlier work

T3 sequence (P13569 with tags, fused parts or gaps DEL508-508): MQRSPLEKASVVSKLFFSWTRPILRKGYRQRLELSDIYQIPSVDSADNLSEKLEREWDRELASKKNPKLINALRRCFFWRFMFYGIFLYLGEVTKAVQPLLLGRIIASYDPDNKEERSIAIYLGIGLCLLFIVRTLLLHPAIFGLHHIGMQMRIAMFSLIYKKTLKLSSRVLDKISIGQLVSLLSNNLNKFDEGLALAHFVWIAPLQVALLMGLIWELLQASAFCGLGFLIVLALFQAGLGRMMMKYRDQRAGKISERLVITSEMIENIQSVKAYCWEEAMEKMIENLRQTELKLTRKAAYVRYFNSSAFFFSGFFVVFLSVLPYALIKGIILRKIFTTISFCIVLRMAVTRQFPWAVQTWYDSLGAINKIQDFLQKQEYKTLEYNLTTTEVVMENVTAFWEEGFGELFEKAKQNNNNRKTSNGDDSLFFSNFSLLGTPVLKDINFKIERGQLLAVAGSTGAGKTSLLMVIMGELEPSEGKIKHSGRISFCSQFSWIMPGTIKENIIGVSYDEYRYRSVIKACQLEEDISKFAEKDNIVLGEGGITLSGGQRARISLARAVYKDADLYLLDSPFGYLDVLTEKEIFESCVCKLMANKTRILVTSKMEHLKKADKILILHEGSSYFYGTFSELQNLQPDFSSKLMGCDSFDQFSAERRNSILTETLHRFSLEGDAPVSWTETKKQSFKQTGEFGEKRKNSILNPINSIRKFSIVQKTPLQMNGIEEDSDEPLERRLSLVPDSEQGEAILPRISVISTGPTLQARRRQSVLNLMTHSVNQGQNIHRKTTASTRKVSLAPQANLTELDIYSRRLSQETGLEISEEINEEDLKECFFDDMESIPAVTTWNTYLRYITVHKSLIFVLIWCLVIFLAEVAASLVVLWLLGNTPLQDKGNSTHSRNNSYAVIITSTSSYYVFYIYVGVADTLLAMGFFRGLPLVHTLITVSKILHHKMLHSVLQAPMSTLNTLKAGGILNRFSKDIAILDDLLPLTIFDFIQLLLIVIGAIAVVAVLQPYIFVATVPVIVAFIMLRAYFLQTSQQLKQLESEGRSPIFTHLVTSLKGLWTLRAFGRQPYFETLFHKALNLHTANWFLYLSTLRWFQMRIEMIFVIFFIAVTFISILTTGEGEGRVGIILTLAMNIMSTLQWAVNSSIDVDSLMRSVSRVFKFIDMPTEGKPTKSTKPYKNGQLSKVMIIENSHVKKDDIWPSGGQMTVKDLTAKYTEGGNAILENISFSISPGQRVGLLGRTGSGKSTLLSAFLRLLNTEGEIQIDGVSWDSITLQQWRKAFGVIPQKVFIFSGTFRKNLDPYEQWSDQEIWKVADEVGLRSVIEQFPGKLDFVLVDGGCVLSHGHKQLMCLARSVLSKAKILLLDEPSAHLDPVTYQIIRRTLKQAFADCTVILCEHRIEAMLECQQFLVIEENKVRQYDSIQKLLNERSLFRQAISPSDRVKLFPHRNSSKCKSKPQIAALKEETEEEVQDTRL
T2 sequence (P13569 with tags, fused parts or gaps DEL508-508): as above
T1 sequence (P13569 whole entry F508del/G551D): as the sequence (P13569 with tags, fused parts or gaps DEL508-508) above, with G550D counted along it

SMILES	EC50 [2] [nM]	EC50 [3] [nM]	further results
CC[C@@H](c1cn(-c2ccc(F)cc2F)nn1)n1cc(-c2cnc(C(F)(F)F)nc2)c2c(N)ncnc21 (single isomer, unassigned) [Example 161]	10.9	8.6	EC50 [1]: 303 nM
CC[C@H](c1cn(-c2ccc(F)cc2F)nn1)n1cc(-c2cnc(C(F)(F)F)nc2)c2c(N)ncnc21 (single isomer, unassigned) [Example 162]	339	363	EC50 [1]: 8450 nM
CCC(c1cn(-c2ccccc2F)nn1)n1cc(-c2cncnc2OC)c2c(N)ncnc21 (single isomer, unassigned; enantiomer 2) [Example 134, (+) 7-{1-[1-(2-Fluorophenyl)-1H-1,2,3-triazol-4-yl]propyl}-5-(4-methoxypyrimidin-5-yl)-7H-pyrrolo[2,3-d]pyrimidin-4-amine, enantiomer 2]	28.9	13.4	EC50 [1]: 826 nM
COc1ncccc1-c1cn(Cc2cnn(-c3c(F)cccc3F)c2)c2ncnc(N)c12 [Example 286, 7-{[1-(2,6-Difluorophenyl)-1H-pyrazol-4-yl]methyl}-5-(2-methoxypyridin-3-yl)-7H-pyrrolo[2,3-d]pyrimidin-4-amine]	176	81	–
CC(c1cn(-c2ncccc2F)nn1)n1cc(-c2ccc(Cl)cc2)c2c(N)ncnc21 (stereo not drawn) [Example 287, 5-(4-Chlorophenyl)-7-{1-[1-(3-fluoropyridin-2-yl)-1H-1,2,3-triazol-4-yl]ethyl}-7H-pyrrolo[2,3-d]pyrimidin-4-amine]	254	112	–
CC(c1cn(-c2ncccc2F)nn1)n1ccc2c(Nc3ccc(OC4CC4)cc3)ncnc21 (stereo not drawn) [Example 288, [4-(Cyclopropyloxy)phenyl]-7-{1-[1-(3-fluoropyridin-2-yl)-1H-1,2,3-triazol-4-yl]ethyl}-7H-pyrrolo[2,3-d]pyrimidin-4-amine]	39.6	90.6	–
Nc1ncnc2c1c(C1CC1)cn2Cc1cn(-c2ccccc2F)nn1 [Example 289, 5-Cyclopropyl-7-{[1-(2-fluorophenyl)-1H-1,2,3-triazol-4-yl]methyl}-7H-pyrrolo[2,3-d]pyrimidin-4-amine]	342	142	–
COCC1CC1c1cn(Cc2cn(-c3ccccc3F)nn2)c2ncnc(N)c12 (stereo not drawn) [Example 290, 7-{[1-(2-Fluorophenyl)-1H-1,2,3-triazol-4-yl]methyl}-5-[2-(methoxymethyl)cyclopropyl]-7H-pyrrolo[2,3-d]pyrimidin-4-amine]	997	669	–
Nc1ncnc2c1c(C1CC1)cn2C1(c2cn(-c3ccccc3F)nn2)CC1 [Example 295, 5-Cyclopropyl-7-{1-[1-(2-fluorophenyl)-1H-1,2,3-triazol-4-yl]cyclopropyl}-7H-pyrrolo[2,3-d]pyrimidin-4-amine]	389	185	–
COc1nccnc1-c1cn(Cc2cn(-c3ccccc3F)nn2)c2ncnc(N)c12 [Example 296, 7-{[1-(2-Fluorophenyl)-1H-1,2,3-triazol-4-yl]methyl}-5-(3-methoxypyrazin-2-yl)-7H-pyrrolo[2,3-d]pyrimidin-4-amine]	50.3	124	–
COc1ncccc1-c1cn(C(c2cn(-c3ccccc3F)nn2)C2CC2)c2ncnc(N)c12 (stereo not drawn) [Example 297, 7-{Cyclopropyl[1-(2-fluorophenyl)-1H-1,2,3-triazol-4-yl]methyl}-5-(2-methoxypyridin-3-yl)-7H-pyrrolo[2,3-d]pyrimidin-4-amine]	40.1	57.5	–
COc1ncccc1-c1cn(C2(c3cn(-c4ccccc4F)nn3)CC2)c2ncnc(N)c12 [Example 298, 7-{1-[1-(2-Fluorophenyl)-1H-1,2,3-triazol-4-yl]cyclopropyl}-5-(2-methoxypyridin-3-yl)-7H-pyrrolo[2,3-d]pyrimidin-4-amine]	245	180	–
Nc1ncnc2c1c(-c1cccc3ncoc13)cn2Cc1cn(-c2ccccc2F)nn1 [Example 299, 5-(1,3-Benzoxazol-7-yl)-7-{[1-(2-fluorophenyl)-1H-1,2,3-triazol-4-yl]methyl}-7H-pyrrolo[2,3-d]pyrimidin-4-amine]	273	235	–
Nc1ncnc2c1c(-c1ncco1)cn2Cc1cn(-c2ccccc2F)nn1 [Example 301, 7-{[1-(2-Fluorophenyl)-1H-1,2,3-triazol-4-yl]methyl}-5-(1,3-oxazol-2-yl)-7H-pyrrolo[2,3-d]pyrimidin-4-amine]	461	360	–
CCC(c1cn(-c2ccccc2F)nn1)n1cc(-c2cncnc2OC)c2c(N)nc(C)nc21 (stereo not drawn) [Example 302, 7-{1-[1-(2-Fluorophenyl)-1H-1,2,3-triazol-4-yl]propyl}-5-(4-methoxypyrimidin-5-yl)-2-methyl-7H-pyrrolo[2,3-d]pyrimidin-4-amine]	297	232	–
COCC(c1cn(-c2ccccc2F)nn1)n1cc(-c2cccnc2OC)c2c(N)ncnc21 (stereo not drawn) [Example 314, 7-{1-[1-(2-Fluorophenyl)-1H-1,2,3-triazol-4-yl]-2-methoxyethyl}-5-(2-methoxypyridin-3-yl)-7H-pyrrolo[2,3-d]pyrimidin-4-amine]	358	230	–
COc1ncncc1-c1cn(C(c2cn(-c3ccccc3F)nn2)C2COC2)c2ncnc(N)c12 (stereo not drawn) [Example 315, 7-{[1-(2-Fluorophenyl)-1H-1,2,3-triazol-4-yl](oxetan-3-yl)methyl}-5-(4-methoxypyrimidin-5-yl)-7H-pyrrolo[2,3-d]pyrimidin-4-amine]	2930	933	–
Nc1ncnc2c1c(C1CC1)cn2Cc1cnn(-c2ccccc2F)c1 [Example 317, 5-Cyclopropyl-7-{[1-(2-fluorophenyl)-1H-pyrazol-4-yl]methyl}-7H-pyrrolo[2,3-d]pyrimidin-4-amine]	87	129	–
CNc1ncnc2c1c(-c1ccc(Cl)cc1)cn2C(C)c1cn(-c2ccccc2F)nn1 (stereo not drawn) [Example 318, 5-(4-Chlorophenyl)-7-{1-[1-(2-fluorophenyl)-1H-1,2,3-triazol-4-yl]ethyl}-N-methyl-7H-pyrrolo[2,3-d]pyrimidin-4-amine]	397	2990	–
CC(C)(C)c1cc(C(C)(C)C)c(NC(=O)c2c[nH]c3ccccc3c2=O)cc1O [Kalydeco, ivacaftor]	–	–	frequency of pulmonary exacerbations (G551 D patients): reduced the frequency of pulmonary exacerbations; lung function, percent predicted FEV1 increased (G551 D patients): 10-13%; weight (G551 D patients): allowed weight gain; improvement on monotherapy [4]: did not lead to any appreciable improvement
